Experimental data published in patent US10105303B2, “Oral care composition comprising zinc amino acid halides” (Colgate-Palmolive Company, priority 2012, dated 2018).
Several values for one entry are separate records, joined by “and”; a condition that tells them apart may be missing. Identical values can stand only once.

Experiments:
[1] = Deposition/occlusion assay on dentine slices, confocal imaging; parameters: species or system human; conditions: for Thickness of surface deposits: 16-fold dilution
Procedure: The deposition/occlusion assay is conducted using human dentine slices and the neat solution of Example 5. The dentine slices were prepared by cutting human tooth into thin dentine sections of about 800 microns in thickness, choosing a test side, sanding said test side using a sandpaper of about 600 grit, polishing said test side using a Buehler polishing cloth and 5 micron Buehler aluminum oxide, acid-etching said dentine section in 1% (by weight) citric acid solution for about 20 seconds, sonicating said dentine section for 10 minutes, and storing said dentine section in phosphate buffered saline (PBS, pH 7.4).
For treatment, the neat solution is diluted 16-fold with water, yielding a treatment solution with initial zinc concentration of about 0.149% by weight. The dentine section is immersed in the treatment solution for 1 hour at 37° C. The treated dentine section is then removed from the treatment solution, and rinsed 4 times, each time with 1 mL of PBS. The dentine section is then dried using a paper-based tissue and examined under confocal microscope in both XYZ and XYZ modes. Subsequent treatments are conducted in the same manner.
Dentine sections, as prepared in Example 6, are repeatedly treated with ZLC dilutions with initial zinc concentration of 0.0747% by weight. […] The dentine section is examined under the confocal microscope after each treatment.

[2] = Dilution experiment of ZLC neat solution: visible flocculation/precipitation and pH; type: physicochemical; conditions: for final pH value: diluted sample
Procedure: Various dilutions of ZLC are prepared to evaluate its efficiency in producing visible precipitates and/or flocculation, which can be delivered in situ onto an oral surface or into a dental opening, such as open tubules.
A neat solution of ZLC is prepared by 1), reacting 0.5 mole of ZnO powder with 1 mole of lysine HCl in 1 liter of water at room temperature for about 2 hours, and 2) collecting the supernatant through centrifugation followed by filtration using a 0.45 micron membrane. The neat solution has a zinc concentration of 2.39% by weight, and a pH of about 7.03.
Dilution experiment is conducted by mixing the neat solution with deionized water. The neat solution is diluted by 2×, 4×, 6×, 7×, 8×, 10×, 12×, 16×, 20×, 24×, 28×, and 32×, corresponding to initial zinc concentrations of 1.20%, 0.598%, 0.398%, 0.341%, 0.299%, 0.239%, 0.199%, 0.149%, 0.120%, 0.0996%, 0.0854%, 0.0747%, by weight, respectively. The diluted samples are kept at 37° C., and the rates at which flocculation/precipitation occurred are monitored.
pH values of final diluted samples are suitable for oral care applications. […] These pH values were well within the range of 5.5 to 10, which defines the suitable range for oral care formulations.

final pH value ([2]; initial zinc concentration 0.0747%): 7.99 | final pH value ([2]; initial zinc concentration 0.0854%): 8.13 | final pH value ([2]; initial zinc concentration 0.0996%): 8.11 | final pH value ([2]; initial zinc concentration 0.120%): 7.97 | final pH value ([2]; initial zinc concentration 0.149%): 7.99 | final pH value ([2]; initial zinc concentration 0.199 wt %): 6.80 | final pH value ([2]; initial zinc concentration 0.239%): 6.70 | pH of the neat solution ([2]; neat solution, zinc concentration 2.39% by weight): about 7.03 | Initial zinc concentration of the additional sample with flocculation ([2]; two hours after mixing, 37° C.): 0.299% | Initial zinc concentrations of dilutions with visible flocculation ([2]; within 30 minutes from mixing with water, 37° C.): 0.149% and 0.199%
Substance: [Zn(C6H14N2O2)2Cl]^+Cl^− [ZLC]
Deposition and occlusion on dentine surface ([1]; after 4 consecutive treatments, 0.0747% zinc, 10 minutes each at 37° C.): significant surface deposition | Deposition and occlusion on dentine surface ([1]; after 12 consecutive treatments, 0.0747% zinc, 10 minutes each at 37° C.): complete surface coverage | Thickness of surface deposits ([1]; after second treatment, 1 hour at 37° C.): ≥ 10 microns | Thickness of surface deposits ([1]; after third treatment, 1 hour at 37° C.): ≥ 25 microns | Deposition and occlusion on dentine surface ([1]; first treatment, 16-fold dilution (about 0.149% zinc), 1 hour at 37° C.): noticeable deposition | Visible precipitation during treatment ([1]; initial zinc concentration 0.0747%, 10 minutes at 37° C.): no precipitation is observed by naked eyes | Deposition and occlusion on dentine surface ([1]; second treatment, 16-fold dilution (about 0.149% zinc), 1 hour at 37° C.): complete surface coverage, including blocking of substantially all tubule openings | Deposition and occlusion on dentine surface ([1]; third treatment, 16-fold dilution (about 0.149% zinc), 1 hour at 37° C.): complete surface coverage and complete blocking of tubule openings | Samples with flocculation and/or precipitation ([2]; after a total of 19 hours, 37° C.): all samples except the one with initial zinc concentration of 1.20%
